Legend:
[1] = test system: parasite-infected cells (Theileria parva - TpMD409); test: Cell viability XTT assay, TpMD409; type: cell-based, bovine; conditions: 72h
Protocol: (§1) All infected bovine cell lines used in this study were previously described: TBL3 cells were derived from in vitro infection of the spontaneous bovine-B lymphosarcoma cell line, BL3, with Hissar stock of T.annulata. The TpMD409 lymphocyte cell line are infected with T. parva. The culture conditions of these cell lines were previously described by Moreau et al., 1999. Cells were cultured in RPMI 1640 (Gibco-BRL, Paisley, UK), supplemented with 10% heat-inactivated Fetal calf serum, 4mM L-Glutamine, 25mM HEPES, 10µM β-mercaptoethanol and 100µg/ml penicillin/streptomycin in a humidified 5%CO2 atmosphere at 37°C. HepG2, NIH/3T3 and MEF cells lines were cultured in DMEM (Gibco-BRL, Paisley, UK), supplemented with 10% heat-inactivated Fetal calf serum, 4mM L-Glutamine, 25 mM HEPES, 10µM β-mercaptoethanol and 100µg/ml penicillin/streptomycin in a humidified 5% CO2 atmosphere at 37°C. Cell numbers, as judged by Trypan Blue exclusion test, were determined by counting cells using a Countess automated cell counter (Invitrogen, CA, USA). The anti-parasite drug Buparvaquone (BW720c) was used at 200ng/ml for 72 hours. BW720c has no effect on growth of uninfected cells. […]

[2] = test system: parasite load in infected TBL3 cells; test: Western blot analysis of parasite actin (TaActin) in infected TBL3 cells; type: cell-based, T.annulata; conditions: 72h treatment
[3] = test system: TBL3 cells transiently expressing TaPIN Mutant A53P; test: Proliferation of TBL3 cells transiently expressing TaPIN Mutant A53P; type: cell-based, bovine; conditions: transient expression of TaPIN Mutant A53P
Protocol: as §1

[4] = test system: PKM2, HIF1α, Hexokinase II and PDK1 in TBL3 cells; test: Immunoblot of PKM2, HIF1α, Hexokinase II and PDK1 in TBL3 cells; type: cell-based, bovine
Protocol: Total proteins were extracted with Laemmli lysis, sonicated: 15 secs ON / 30 secs OFF for 5 min, resolved on 10.5% acrylamide/bis-acrylamide SDS-PAGE gels and transferred to nitrocellulose membranes (Thermo Fisher Scientific, MA, USA) in transfer buffer. Protein transfer was assessed by Ponceau-red staining. Membranes were blocked in Tris-buffered saline pH7.4 containing 0.1% Tween-20 and 5% milk for 1 h at room temperature. Incubations with primary antibodies were carried out at 4°C overnight using antibody dilutions as manufacturer recommendations in Trisbuffered saline pH7.4, 0.05% Tween-20 and 5% milk. Following 1 h incubation with an anti-rabbit or anti-mouse peroxidase-conjugated antibody (Sigma, St Louis, MO, USA) at room temperature, proteins were detected by chemiluminescence (Thermo Fisher Scientific, MA, USA) following the manufacturer's instructions. The following antibodies were used: Rabbit anti-TaPIN (Home-made antibody, Proteogenix, Peptide used: […]-Cys), rabbit anti-PIN1 (Cell Signaling, Ref: 3722), rabbit anti-TaActin (kindly provided by Jake Baum, Australia), rabbit anti-c-Jun (Santa Cruz, CA, USA Ref: sc1694), mouse anti-αTubulin (Sigma, Ref: T9026), , rabbit anti-HIF1α (Abcam, Cambridge, UK; Ref: ab75918), rabbit anti-Hexokinase II (Cell Signaling, Ref: C64G5), rabbit anti-PDK1 (Cell signaling, Ref: C47H1), mouse anti-HA (Roche, Ref: 11583816001), rabbit anti-FBW7 (Bethyl Laboratories, Ref: A301-721A), rabbit anti-Histone H3 (Abcam, Ref: ab1791), rabbit anti-PKM2 (Abcam, Ref: ab38237), mouse anti-Actin (Sigma, Ref: A1978) and monoclonal anti-FLAG M2-Peroxidase (Sigma, Ref: A8592). c-Jun, FBW7 or PKM2/Actin ratios were calculated after Western blot signal quantification with the Plot Lanes Analysis tool of Image J software (National Institutes of Health, Bethesda, MD, USA).

[5] = test system: TpPIN protein; test: Immunoblot of TpPIN protein in nuclear and cytoplasmic fractions of T. parva-infected cells; type: cell-based; conditions: nuclear and cytoplasmic fractions of T. parva-infected TpM409 B cells
Protocol: Cells were lysed in the following buffer: 5mM Tris HCL pH7.5, 40mM KCL, 2mM MgCL2, 0.5mM EDTA, 0.05mM Spermidine and Spermine, 0.1% NP-40, H2O. Lysates were incubated for 5min on ice and centrifuged for 10min at 5000rpm. The supernatant constitutes the Cytoplasmic fraction and the pellet constitutes the nuclear fraction.
Total proteins were extracted with Laemmli lysis, sonicated: 15 secs ON / 30 secs OFF for 5 min, resolved on 10.5% acrylamide/bis-acrylamide SDS-PAGE gels and transferred to nitrocellulose membranes (Thermo Fisher Scientific, MA, USA) in transfer buffer. Protein transfer was assessed by Ponceau-red staining. Membranes were blocked in Tris-buffered saline pH7.4 containing 0.1% Tween-20 and 5% milk for 1 h at room temperature. Incubations with primary antibodies were carried out at 4°C overnight using antibody dilutions as manufacturer recommendations in Trisbuffered saline pH7.4, 0.05% Tween-20 and 5% milk. Following 1 h incubation with an anti-rabbit or anti-mouse peroxidase-conjugated antibody (Sigma, St Louis, MO, USA) at room temperature, proteins were detected by chemiluminescence (Thermo Fisher Scientific, MA, USA) following the manufacturer's instructions. […]

[6] = test system: HepG2 cells; test: Soft agar colony forming assay, HepG2; type: cell-based, human; conditions: number of colonies per plate
Protocol: as §1, with “HepG2, NIH/3T3 and MEF cells lines were cultured in DMEM (Gibco-BRL, Paisley, UK), supplemented with 10% heat-inactivated Fetal calf serum, 4mM L-Glutamine, 25 mM HEPES, 10µM β-mercaptoethanol and 100µg/ml penicillin/streptomycin in a humidified 5% CO2 atmosphere at 37°C.” left out, “USA).” for “USA). The anti-parasite drug Buparvaquone (BW720c) was used at 200ng/ml for 72 hours. BW720c has no effect on growth of uninfected cells.”
A two-layer soft agar culture system was used. […] Cultures were incubated in humidified 37°C incubators with an atmosphere of 5%CO2 in air, and control plates were monitored for growth using a microscope. At the time of maximum colony formation (10 days in culture), final colony numbers were counted manually after fixation a staining with 0.005% Crystal Violet (Sigma, Ref.: C3886).

**Q.** Which results are given for `CC(C)(C)C1CCC(CC2=C(O)C(=O)c3ccccc3C2=O)CC1` (stereo not drawn) [Buparvaquone, 2-((4-tert-butylcyclohexyl)methyl)-3-hydroxy-1,4-naphthoquinone]?
**A.** viability of parasite-infected cells [1]: decreased the viability; parasite load, parasite actin (TaActin) [2]: decreased parasite load; drug effect on TBL3 cell proliferation on overexpression of the TaPIN Mutant A53P [3]: rescued; HIF1α protein expression [4]: reduced; PKM2 protein expression [4]: reduced; Hexokinase II ([4]; HIF1α target gene): reduced; PDK1 ([4]; HIF1α target gene): reduced; TpPIN protein [5]: decreased; soft agar colony-forming potential of HepG2 cells [6]: decreased
